According to ChEMBL document CHEMBL1148388, “Restriction of a peptide turn conformation and conformational analysis of guanidino group using arginine-proline fused amino acids: application to mini atrial natriuretic peptide on binding to the receptor” (J Med Chem, 2004):
Numbered stars: 1 amine (or outer) side, 2 acyl side, 3 side chain; on linkers, the order of the positions; unused ones are H or OH. Bridge positions count the residues as written; N and C are the ends. Square brackets hold non-standard residues; d marks the D form. Peptide text beside a SMILES is read from it. X2 = NC(N)=NCC[C@@H]1C[C@@H](C(=O)[*:2])N([*:1])C1; X1 = NC(N)=NCC[C@H]1C[C@@H](C(=O)[*:2])N([*:1])C1

Test: Relative biological activity was measured as EC50 analogue/ EC50 miniANP
Assay type: functional

Compound	Ratio
CC[C@H](C)[C@@H]1NC(=O)[C@@H](CCCN=C(N)N)NC(=O)[C@H](CC(=O)O)NC(=O)[C@@H](CCSC)NC(=O)[C@@H]2CCCN2C(=O)CNC(=O)CNC(=O)[C@@H](Cc2ccccc2)NC(=O)[C@H](Cc2c[nH]cn2)NC(=O)[C@@H](NC(=O)[C@@H](N)CCSC)CSSC[C@H](C(=O)N[C@@H](Cc2ccc(O)cc2)C(=O)N[C@@H](CCCN=C(N)N)C(N)=O)NC(=O)[C@@H](CO)NC1=O	18.7
CC[C@H](C)[C@@H]1NC(=O)[C@@H](CCCN=C(N)N)NC(=O)[C@H](CC(=O)O)NC(=O)[C@@H](CCSC)NC(=O)[C@H](CCCN=C(N)N)NC(=O)CNC(=O)CNC(=O)[C@@H](Cc2ccccc2)NC(=O)[C@H](Cc2c[nH]cn2)NC(=O)[C@@H](NC(=O)[C@@H](N)CCSC)CSSC[C@H](C(=O)N[C@@H](Cc2ccc(O)cc2)C(=O)N[C@@H](CCCN=C(N)N)C(N)=O)NC(=O)[C@@H](CO)NC1=O [MiniANP]	1
CC[C@H](C)[C@@H]1NC(=O)[C@@H](CCCN=C(N)N)NC(=O)[C@H](CC(=O)O)NC(=O)[C@@H](CCSC)NC(=O)[C@H](C)NC(=O)CNC(=O)CNC(=O)[C@@H](Cc2ccccc2)NC(=O)[C@H](Cc2c[nH]cn2)NC(=O)[C@@H](NC(=O)[C@@H](N)CCSC)CSSC[C@H](C(=O)N[C@@H](Cc2ccc(O)cc2)C(=O)N[C@@H](CCCN=C(N)N)C(N)=O)NC(=O)[C@@H](CO)NC1=O	44.3

Test: Effective concentration required for production of cGMP in Chinese hamster ovary cells expressing natriuretic peptide receptor A (NPR-A)
Assay type: functional, cell-based

Compound	EC50
CC[C@H](C)[C@@H]1NC(=O)[C@H](CCCN=C(N)N)NC(=O)[C@H](CC(=O)O)NC(=O)[C@H](CCSC)NC(=O)[C@@H]2C[C@H](CCN=C(N)N)CN2C(=O)CNC(=O)CNC(=O)[C@H](Cc2ccccc2)NC(=O)[C@H](Cc2c[nH]cn2)NC(=O)[C@@H](NC(=O)[C@@H](N)CCSC)CSSC[C@@H](C(=O)N[C@@H](Cc2ccc(O)cc2)C(=O)N[C@@H](CCCN=C(N)N)C(N)=O)NC(=O)[C@H](CO)NC1=O (H-MCHFGG[X1]MDRISCYR-NH2; disulfide 2-13)	4.6 nM
CC[C@H](C)[C@@H]1NC(=O)[C@H](CCCN=C(N)N)NC(=O)[C@H](CC(=O)O)NC(=O)[C@H](CCSC)NC(=O)[C@@H]2CCCN2C(=O)CNC(=O)CNC(=O)[C@H](Cc2ccccc2)NC(=O)[C@H](Cc2c[nH]cn2)NC(=O)[C@@H](NC(=O)[C@@H](N)CCSC)CSSC[C@@H](C(=O)N[C@@H](Cc2ccc(O)cc2)C(=O)N[C@@H](CCCN=C(N)N)C(N)=O)NC(=O)[C@H](CO)NC1=O	58.1 nM
CC[C@H](C)[C@@H]1NC(=O)[C@H](CCCN=C(N)N)NC(=O)[C@H](CC(=O)O)NC(=O)[C@H](CCSC)NC(=O)[C@@H]2C[C@@H](CCN=C(N)N)CN2C(=O)CNC(=O)CNC(=O)[C@H](Cc2ccccc2)NC(=O)[C@H](Cc2c[nH]cn2)NC(=O)[C@@H](NC(=O)[C@@H](N)CCSC)CSSC[C@@H](C(=O)N[C@@H](Cc2ccc(O)cc2)C(=O)N[C@@H](CCCN=C(N)N)C(N)=O)NC(=O)[C@H](CO)NC1=O (H-MCHFGG[X2]MDRISCYR-NH2; disulfide 2-13)	1.3 nM
CC[C@H](C)[C@@H]1NC(=O)[C@H](CCCN=C(N)N)NC(=O)[C@H](CC(=O)O)NC(=O)[C@H](CCSC)NC(=O)[C@H](C)NC(=O)CNC(=O)CNC(=O)[C@H](Cc2ccccc2)NC(=O)[C@H](Cc2c[nH]cn2)NC(=O)[C@@H](NC(=O)[C@@H](N)CCSC)CSSC[C@@H](C(=O)N[C@@H](Cc2ccc(O)cc2)C(=O)N[C@@H](CCCN=C(N)N)C(N)=O)NC(=O)[C@H](CO)NC1=O	137 nM
